Results reported in PMC8037814, “Polymorphic Characterization, Pharmacokinetics, and Anti-Inflammatory Activity of Ginsenoside Compound K Polymorphs” (Molecules, 2021).
Where “and” joins values, the source holds several entries; their conditions need not be identical. Identical values can stand only once.

Columns and labels:
[1] = DSC thermal analysis of CK polymorphs; assay type: physicochemical; conditions: 20 K/min from 20 to 400 °C, dry nitrogen flow
Method: DSC measurements were performed on a DSC204 Phoenix calorimeter (NETZSCH, Selb, Germany) with a heating rate of 20 K/min from 20 to 400 °C. The dry nitrogen flow was about 50 mL/min. Data were analyzed using NETZSCH analysis software.

[2] = Pharmacokinetics after oral administration of CK polymorphs in rats (20 mg/kg); assay type: in vivo, Sprague-Dawley rats; conditions: p.o. 20 mg/kg, individual rats 1-3
Method: All samples were analyzed with a triple quadrupole LC-MS/MS (API 4000 LC-MS/MS, AB Sciex, Framingham, MA, USA) coupled with an Agilent 1200 HPLC system (Agilent Technologies, Palo Alto, CA, USA). The MS was equipped with an electrospray system (ESI). The N2 gas temperature and ion-spray voltage were set to 550 °C and 4.5 kV, respectively. CK was measured in multiple reaction monitoring (MRM) mode using a negative electrospray ionization source at m/z 667.4 → 621.2 for CK (CID 25.6 v) and m/z 271.2 → 228.8 for internal standard (IS, (E)-5-(4-fluorostyryl)-2-isopropylbenzene-1,3-diol, Welichem Biotech Inc., Wayburne Drive Burnaby, BC, Canada) (CID 28.3 v) with a dwell time of 0.1 s.
Rats were divided randomly into 5 groups of six animals each (sex in half) and given 7 days to acclimatize to the facility before the experiments began. The four forms of CK were suspended in 0.5% sodium carboxymethyl cellulose (CMC-Na) solution and orally administered to rats at a dose of 20 mg/kg. A CK solution in a mixed solvent of dimethyl sulfoxide (DMSO)/castor oil/physiologic saline (3:5:92, v/v) was intravenously administered to the remaining group via the tail vein at a dose of 10 mg/kg. Blood samples were collected by retro-orbital puncture at the following times: 0.167, 0.333, 0.667, 1, 2, 3, 4, 6, 9, 12, and 24 h for the oral administration, and at 0.0083, 0.05, 0.133, 0.25, 0.5, 1, 2, 4, 6, and 9 h for the intravenous administration. Plasma samples were obtained by centrifuging a heparinized blood tube at 4000 rpm for 5 min and then stored at −70 °C until analysis.
The procedure for drug extraction from plasma samples was as follows: 0.2 mL acetonitrile, 0.2 mL plasma sample, and 10 μL IS (1 µg/mL) were added into a 1.5 mL Eppendorf-type tube. This mixture was vortexed for 1 min and then treated with 0.8 mL of methyl tert-butyl ether (MTBE) to precipitate the plasma proteins. After a mechanical vortex for 1 min and subsequent centrifugation (4000 rpm, 5 min), 0.8 mL of the supernatant was transferred and blow-dried with N2 at 40 °C in a water bath. Finally, the residue was dissolved in 120 μL of mobile phase, and then 10 μL was subjected to HPLC for analysis. […] Intra- and inter-day precision and accuracy never exceeded 15% by analyzing six replicate samples.
The CK pharmacokinetic parameters in rats, including the area under the curve (AUC(0–t) and AUC(0–∞)), mean residence time (MRT(0–t) and MRT(0–∞)), maximum concentration (Cmax), time to maximum concentration (Tmax), half-life (t1/2), apparent distribution volume (V), and total plasma clearance (CL), were derived from plasma concentration-time curves by using non-compartmental analysis (NCA) with DAS 2.0 software (Drug And Statistics, Mathematical Pharmacology Professional Committee of China, Shanghai, China). The absolute bioavailability (Fabs) was calculated from the dose-adjusted ratio of AUCp.o. to AUCi.v.. One-way analysis of variance (ANOVA) by SPSS 11.5 (SPSS Inc., Chicago, IL, USA) was conducted to compare the primary PK parameters.

[3] = as above; assay type: in vivo, Sprague-Dawley rats; conditions: for Fabs (absolute bioavailability): p.o. 20 mg/kg vs i.v. 10 mg/kg, dose-adjusted AUC ratio
[4] = system: carrageenan-induced acute paw inflammation; experiment: Paw swelling test induced by carrageenan in rats; assay type: in vivo, Sprague-Dawley rats; design: paw volume: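 right hind paw volume measured with a plethysmometer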; conditions: for paw volume / paw edema: mean±SD of 6 rats; for edema inhibition: versus model group
Method: Rats were divided into 11 groups of six animals each (sex in half): the normal group, the model group, indomethacin group (1 mg/kg), and form I, II, III, IV groups (each form set 10 mg/kg and 20 mg/kg groups, respectively). Indomethacin and CK were ground and suspended in 0.5% CMC-Na solution. […] The same volume of saline was injected into the normal group. […] Paw edema and inhibitory rate were calculated as the following formula, and the differences among groups were compared with the t-test. Paw edema (%) = (Vn − V0)/V0 × 100%. Vn: paw volume at different time intervals after carrageenan injection. V0: paw volume before carrageenan injection. Inhibitory rate (%) = (Em − Ee)/Em × 100%. Em: paw edema of the model group. Ee: paw edema of the experimental group.

[5] = female rats, p.o. 20 mg/kg, mean ± SD (n = 3), 20 mg/kg
[6] = male rats, p.o. 20 mg/kg, mean ± SD (n = 3), 20 mg/kg
[7] = 10 mg/kg p.o. qd 3 days, 3h after carrageenan, listed as From II
[8] = 10 mg/kg p.o. qd 3 days, 4h after carrageenan, listed as From II
[9] = 10 mg/kg p.o. qd 3 days, 5h after carrageenan, listed as From II
[10] = 10 mg/kg p.o. qd 3 days, 6h after carrageenan, listed as From II
[11] = 20 mg/kg p.o. qd 3 days, 3h after carrageenan, listed as From II
[12] = 20 mg/kg p.o. qd 3 days, 4h after carrageenan
[13] = 20 mg/kg p.o. qd 3 days, 4h after carrageenan, listed as From II
[14] = 20 mg/kg p.o. qd 3 days, 5h after carrageenan, listed as From II
[15] = 20 mg/kg p.o. qd 3 days, 6h after carrageenan, listed as From II

Structure (SMILES): CC(C)=CCCC(C)(OC1OC(CO)C(O)C(O)C1O)C1CCC2(C)C1C(O)CC1C3(C)CCC(O)C(C)(C)C3CCC12C [Form II, 20-O-β-D-glucopyranosyl-20(S)-protopanaxadiol]
- DSC onset of the decomposition endotherm (thermodynamical stability) [1]: 263.1 °C
- AUC(0-t) ([2]; female rats): 4557.73 ng·h/mL and 1338.42 ng·h/mL and 1445.59 ng·h/mL
- AUC(0-∞) ([2]; female rats): 4823.11 ng·h/mL and 1371.40 ng·h/mL and 1459.17 ng·h/mL
- CLz/F ([2]; female rats): 69.2 mL/min/kg and 243 mL/min/kg and 228.5 mL/min/kg
- Cmax ([2]; female rats): 777.00 ng/mL and 209.65 ng/mL and 392.12 ng/mL
- Vz/F ([2]; female rats): 23.70 L/kg and 62.95 L/kg and 49.26 L/kg
- AUC(0-t) ([2]; male rats): 1095.34 ng·h/mL and 774.36 ng·h/mL and 1703.47 ng·h/mL
- AUC(0-∞) ([2]; male rats): 1198.51 ng·h/mL and 780.14 ng·h/mL and 1726.92 ng·h/mL
- CLz/F ([2]; male rats): 278.2 mL/min/kg and 427.3 mL/min/kg and 193 mL/min/kg
- Cmax ([2]; male rats): 187.99 ng/mL and 197.22 ng/mL and 311.79 ng/mL
- t1/2z ([2]; male rats): 2.17 h and 2.39 h and 4.24 h
- maximum differences of the average Cmax and AUC(0–∞) values, form II compared to form IV ([3]; female groups, p.o. 20 mg/kg): 2.1 fold
- Fabs (absolute bioavailability) ([3]; female rats): 7.87%
- t1/2z ([3]; female rats, p.o. 20 mg/kg, individual rats 1-3, 20 mg/kg): 3.96 h and 2.99 h and 2.49 h
- AUC(0–t) [3, 5]: 2447.2 ± 1828.5 ng·h/mL
- AUC(0–∞) [3, 5]: 2551.23 ± 1967.99 ng·h/mL and 2551.2 ± 1968.0 ng·h/mL
- CLz/F [3, 5]: 180 ± 96.5 mL/min/kg
- Cmax [3, 5]: 459.59 ± 289.63 ng/mL and 459.6 ± 289.6 ng/mL
- Vz/F [3, 5]: 45.3 ± 20.0 L/kg
- t1/2z [3, 5]: 3.15 ± 0.75 h and 3.2 ± 0.75 h
- AUC(0-t) ([3]; female, Sprague-Dawley, rat, plasma, po, 20 mg/kg, female rats, p.o. 20 mg/kg, mean ± SD (n = 3)): 2450 ± 1830 ng·h/mL
- CL/F ([3]; female, Sprague-Dawley, rat, plasma, po, 20 mg/kg, female rats, p.o. 20 mg/kg, mean ± SD (n = 3), read-out: CLz/F (converted)): 180 mL/min/kg
- maximum differences of the average Cmax and AUC(0–∞) values, form II compared to form IV ([3]; male groups, p.o. 20 mg/kg): 1.6 fold
- Fabs (absolute bioavailability) ([3]; male rats): 4.07%
- Vz/F ([3]; male rats, p.o. 20 mg/kg, individual rats 1-3, 20 mg/kg): 102.18 L/kg and 80.31 L/kg and 39.93 L/kg
- AUC(0–t) [3, 6]: 1191.06 ± 471.90 ng·h/mL and 1191.1 ± 471.90 ng·h/mL
- AUC(0–∞) [3, 6]: 1235.2 ± 474.45 ng·h/mL
- CLz/F [3, 6]: 299.5 ± 118 mL/min/kg and 300 ± 118 mL/min/kg
- Cmax [3, 6]: 232.33 ± 68.97 ng/mL and 232.3 ± 68.97 ng/mL
- Vz/F [3, 6]: 74.14 ± 31.58 L/kg and 74.1 ± 31.6 L/kg
- t1/2z [3, 6]: 2.93 ± 1.14 h and 2.9 ± 1.1 h
- AUC(0-inf) ([3]; male, Sprague-Dawley, rat, plasma, po, 20 mg/kg, male rats, p.o. 20 mg/kg, mean ± SD (n = 3)): 1240 ± 474 ng·h/mL
- paw volume ([4]; 10 mg/kg p.o. qd 3 days, 0h (before carrageenan), listed as From II): 1.57±0.12
- paw edema [4, 7]: 55.25±18.20%
- paw volume [4, 7]: 2.41±0.16
- edema inhibition [4, 7]: 14.03%
- paw edema [4, 8]: 47.34±11.94%
- paw volume [4, 8]: 2.30±0.14
- edema inhibition [4, 8]: 24.09%
- paw edema [4, 9]: 33.73±13.72%
- paw volume [4, 9]: 2.08±0.12
- edema inhibition [4, 9]: 34.84%
- paw edema [4, 10]: 27.25±10.94%
- paw volume [4, 10]: 1.98±0.08
- edema inhibition [4, 10]: 30.70%
- paw volume ([4]; 20 mg/kg p.o. qd 3 days, 0h (before carrageenan), listed as From II): 1.65±0.14
- paw edema [4, 11]: 45.81±8.11%
- paw volume [4, 11]: 2.40±0.15
- edema inhibition [4, 11]: 28.72%
- paw edema [4, 12]: 39.7 ± 6.4%
- paw edema [4, 13]: 39.71±6.48%
- paw volume [4, 13]: 2.30±0.14
- edema inhibition [4, 12]: 36.3%
- edema inhibition [4, 13]: 36.33%
- paw edema [4, 14]: 29.62±8.06%
- paw volume [4, 14]: 2.13±0.15
- edema inhibition ([4]; 20 mg/kg p.o. qd 3 days, 5h after carrageenan): 42.7%
- edema inhibition [4, 14]: 42.77%
- paw edema [4, 15]: 23.59±8.59%
- paw volume [4, 15]: 2.03±0.14
- edema inhibition ([4]; 20 mg/kg p.o. qd 3 days, 6h after carrageenan): 40.0%
- edema inhibition [4, 15]: 40.00%
